Like-named read-outs stand apart in the source and are kept apart here. Each block holds one molecule with its values, some of them ahead of it. Where a SMILES comes first, the peptide text is derived from it.
Key:
BT-474 breast tumors = experiment: Xenograft model of breast cancer; type: in vivo, athymic nude mice; settings: BT-474 xenograft
Description: All animals were handled according to the approved protocol from IACUC at the University of Louisiana at Monroe. Athymic nude mice (Foxn1nu/Foxn1+, female, 4–5 weeks) were purchased from Harlan Laboratories (Indianapolis, IN) and maintained in the ULM School of Pharmacy vivarium. After acclimatization of animals to the local environment, estrogen (17β-estradiol) pellets (0.72 mg, 90-day release) were implanted subcutaneously in the mice, under anesthesia. Tumors were induced in mice as described previously. Orthotopic injection of about three-million BT-474 cells suspended in the serum-free RPMI-1640 medium was done at the second left mammary fat pad. Mice were observed every day for tumor formation, and the tumor diameter was measured with calipers, and the tumor volume was calculated. When a tumor diameter of 3 mm was achieved, mice were randomly assigned to four groups of six. These groups contain negative control (vehicle control), positive control (lapatinib), and two treatment groups (compound 9 and 18). The mice were treated for 19 days. Compound 18 was administered near the base of the tumor at a dose of 4 mg/kg twice a week. Control groups received intratumor saline injections twice a week, and lapatinib was administered at 10 mg/kg once a week by intraperitoneal injection. The marker to end the experiments was based on tumor doubling time rather than tumor volume. Since tumor doubling time was 4 times in 19 days, experiments were stopped on the 19th day. Tumor-bearing mice were sacrificed, and three tumors per group were harvested and maintained at –80°C and the remaining three tumors were fixed in paraffin blocks. Microsections (5 µm) of paraffin fixed tumors were stained with hemotoxylin and eosin (H&E) and observed for necrosis by a pathologist. All data are presented as the mean ± SE. Statistical differences were evaluated by Mann-Whitney U test as well as one-way ANOVA analysis of data from different groups, and the criterion for statistical significance was p < 0.05.

SKBR-3 cells [1] = test system: SKBR-3 cells; design: method as in PMID 21887403, PMID 20919746, PMID 25346057, PMID 24222531, PMID 19703026; settings: Table 2, compounds marked * reported earlier; read-out: Antiproliferative activity (IC50 µM) SKBR-3 cells; cited from earlier work
SKBR-3 cells [2] = test system: SKBR-3 cells
Description: (§1) Cellular assays were performed using BT-474, SKBR-3, Calu-3, MCF-7, and MCF-10A cells (ATCC). Antiproliferative activity was measured by CellTiter-Glo®, [49] a luminescence-based cell viability assay. In a 96-well plate, 1 × 10^4 cells/well were seeded and incubated overnight at 37°C and 5% CO2. Stock solutions of peptidomimetics were prepared by dissolving 1.5 mg/mL of compounds in DMSO. Stock solution of the compounds were diluted using the serum-free medium to prepare solutions of different concentrations of compounds. Compounds in the medium were added to the wells in triplicate and incubated for 72 h. As controls, cells treated with 1% sodium dodecyl sulfate and 1% dimethyl sulfoxide were used. At the end of the experiment, CellTiter-Glo® reagent was added, and luminescence was measured by a plate reader. A dose response curve was generated using luminescence vs concentration of compounds and IC50 values were obtained using Prism® (GraphPad Software, La Jolla, CA). Experiments were repeated at least three times to obtain standard deviation values.

[3] = target: T1, HER2:HER3 dimerization in transfected U2OS cells (Homo sapiens, UniProt P04626); experiment: Enzyme fragment complementation (PathHunter) assay; type: cell-based; settings: for Inhibition of HER2:HER3 dimerization (PathHunter): in the presence of 0.3 µM NRG1
T1 construct: host or cells: U2OS
Description: A Pathhunter assay kit was obtained from DiscoverX, and enzyme fragment complementation assay was carried out. U2OS cells transfected with HER3:HER2 were used for the assay. After cells were attached to the wells, they were incubated with compound 18 and controls at different concentration in the presence of neuregulin-1 (NRG-1) at 0.3 µM concentration. After 24 h of incubation, reagents were added, and luminescence was measured and compared with a control without any compound. A plot of luminescence versus concentration was obtained to measure the dimerization of HER3:HER2 and its inhibition by compound 18.

SKBR-3 cells [4] = experiment: cells; settings: Homo sapiens, SK-BR-3, 72 h, read-out: IC50 SKBR-3(+)
Description: as §1

[5] = target: T2, HER2:HER3 heterodimerization in tumor sections (Homo sapiens, UniProt P04626); experiment: PLA on xenograft tumor sections; type: in vivo, athymic nude mice
T2 construct: from tissue; host or cells: BT-474 xenograft tumours grown in athymic nude mice
Description: Western blot and PLA assay were carried out on tumor sections as described before. Immunoblot analysis was performed to evaluate the levels of total HER2 and phosphorylated HER2. Tumor sections were deparaffinized using xylene and rehydrated with decreasing concentrations of ethanol. Antigen retrieval on the microsections of the breast tumors was done in a steaming sodium citrate buffer (10 mM, 0.05% Tween-20, pH 6.0) for 5 min. The tumor sections were then used to analyze inhibition of HER2:HER3 dimerization using PLA.

[6] = target: T3, HER2 ECD (domains I to IV) (Homo sapiens, UniProt P04626); experiment: Surface plasmon resonance analysis; type: binding; settings: protein immobilized on CM5 chip, substance as analyte
T3 construct: Extracellular domains of proteins HER2, EGFR, HER3, and HER4 purchased from Leinco Technologies; purchased Leinco Technologies (St. Louis, MO)
Description: Surface plasmon resonance analysis was performed using GE X100. Extracellular domains of proteins HER2, EGFR, HER3, and HER4 purchased from Leinco Technologies (St. Louis, MO). […] Compound 18 and controls were used as analytes. Compound 18 at different concentrations (0 to 200 µM) was passed through an SPR chip, and binding kinetics were analyzed for each of the EGFR bindings. A blank subtracted sensorgram for compound 18 was represented.

MCF-7 cells = experiment: Antiproliferative activity (CellTiter-Glo); type: cell-based; settings: breast cancer cells that do not overexpress HER2, 72 h
Text: Erlotinib was from Sigma (Sigma-Aldrich Chemie GmbH).

SKOV-3 cells = settings: read-out: IC50 SKOV-3(+); HER2-overexpressing ovarian cancer cells, 72 h
Description: as §1

Calu-3 cells = settings: read-out: IC50 Calu-3 (+); HER2-overexpressing lung cancer cells, 72 h
Description: as §1

BT-474 cells = settings: read-out: IC50 BT-474 (+); HER2-overexpressing breast cancer cells, 72 h
Description: as §1

[7] = read-out: Antiproliferative activity (IC50 µM) SKBR-3 cells, Table 2, compound 18 and diastereoisomers

Molecule: NH2-Arg-Anapa-Phe-Asp-OH [compound 9]
- Difference in delay of tumor growth between compound 18 and compound 9 (BT-474 breast tumors; 4 mg/kg twice a week): not statistically significant
- IC50 (SKBR-3 cells [1]): 0.445 ± 0.032 µM

Molecule: N=C(N)NCCC[C@@H]1NC(=O)[C@H]2CCCN2C(=O)[C@@H]2CCCN2C(=O)[C@H](CCCNC(=N)N)NC(=O)C[C@H](c2cccc3ccccc23)NC(=O)[C@H](Cc2ccccc2)NC(=O)[C@H](CC(=O)O)NC(=O)[C@H](CC(=O)O)NC(=O)[C@H](Cc2ccccc2)NC(=O)C[C@@H](c2cccc3ccccc23)NC1=O [compound 18-1, Cyclo(1,10)P^1p^2R^3(S-Anapa)^4F^5D^6D^7F^8(R-Anapa)^9R^10] (HELM PEPTIDE1{P.[dP].R.[O=C(C[C@H](N[*:1])c1cccc2ccccc12)[*:2]].F.D.D.F.[O=C(C[C@@H](N[*:1])c1cccc2ccccc12)[*:2]].R}$PEPTIDE1,PEPTIDE1,1:R1-10:R2$$$V2.0)
- IC50 (SKBR-3 cells [2]; [7]): > 50 µM

Molecule: N=C(N)NCCC[C@@H]1NC(=O)[C@H]2CCCN2C(=O)[C@@H]2CCCN2C(=O)[C@H](CCCNC(=N)N)NC(=O)C[C@@H](c2cccc3ccccc23)NC(=O)[C@H](Cc2ccccc2)NC(=O)[C@H](CC(=O)O)NC(=O)[C@H](CC(=O)O)NC(=O)[C@H](Cc2ccccc2)NC(=O)C[C@H](c2cccc3ccccc23)NC1=O [compound 18-2, Cyclo(1,10)P^1p^2R^3(R-Anapa)^4F^5D^6D^7F^8(S-Anapa)^9R^10] (HELM PEPTIDE1{P.[dP].R.[O=C(C[C@@H](N[*:1])c1cccc2ccccc12)[*:2]].F.D.D.F.[O=C(C[C@H](N[*:1])c1cccc2ccccc12)[*:2]].R}$PEPTIDE1,PEPTIDE1,1:R1-10:R2$$$V2.0)
- IC50 (SKBR-3 cells [2]; [7]): 0.743 ± 0.35 µM

- Inhibition of HER2:HER3 dimerization (PathHunter) [3]: shown to inhibit HER2:HER3 dimerization
Molecule: Ac-f(Anapa)r-NH2 [compound 21]
- IC50 (SKBR-3 cells [1]): 0.373 ± 0.15 µM

Molecule: N=C(N)NCCC[C@@H]1NC(=O)[C@@H]2CCCN2C(=O)[C@H]2CCCN2C(=O)[C@H](CCCNC(=N)N)NC(=O)C[C@H](c2cccc3ccccc23)NC(=O)[C@H](Cc2ccccc2)NC(=O)[C@H](CC(=O)O)NC(=O)[C@H](CC(=O)O)NC(=O)[C@H](Cc2ccccc2)NC(=O)C[C@H](c2cccc3ccccc23)NC1=O [compound 18-5, Cyclo(1,10)p^1P^2R^3(R-Anapa)^4F^5D^6D^7F^8(R-Anapa)^9R^10] (HELM PEPTIDE1{[dP].P.R.[O=C(C[C@@H](N[*:1])c1cccc2ccccc12)[*:2]].F.D.D.F.[O=C(C[C@@H](N[*:1])c1cccc2ccccc12)[*:2]].R}$PEPTIDE1,PEPTIDE1,1:R1-10:R2$$$V2.0)
- IC50 (SKBR-3 cells [2]; [7]): 12.8 ± 1.9 µM

- IC50 (SKBR-3 cells [4]): 13 ± 3 nM
Molecule: CS(=O)(=O)CCNCc1ccc(-c2ccc3ncnc(Nc4ccc(OCc5cccc(F)c5)c(Cl)c4)c3c2)o1 [Lapatinib, reference compound]
- Tumor growth versus vehicle (BT-474 breast tumors; 19 days, 18 and 9 4 mg/kg twice a week intratumor, lapatinib 10 mg/kg once a week i.p.): significant delay in tumor growth
- HER2:HER3 heterodimerization in tumor sections (PLA) [5]: red fluorescence due to dimerization of HER2:HER3

Molecule: neuregulin-1 [reference compound]
- Induction of HER2:HER3 dimerization (PathHunter) ([3]; agonist dose-response): concentration dependence of induction of dimerization

Molecule: NH2-Arg-Anapa-Phe-OH [compound 5]
- IC50 (SKBR-3 cells [1]): 0.396 ± 0.022 µM

Molecule: N=C(N)NCCC[C@@H]1NC(=O)[C@H]2CCCN2C(=O)[C@@H]2CCCN2C(=O)[C@H](CCCNC(=N)N)NC(=O)C[C@@H](c2cccc3ccccc23)NC(=O)[C@H](Cc2ccccc2)NC(=O)[C@H](CC(=O)O)NC(=O)[C@H](CC(=O)O)NC(=O)[C@H](Cc2ccccc2)NC(=O)C[C@@H](c2cccc3ccccc23)NC1=O [compound 18-3, Cyclo(1,10)P^1p^2R^3(S-Anapa)^4F^5D^6D^7F^8(S-Anapa)^9R^10] (HELM PEPTIDE1{P.[dP].R.[O=C(C[C@H](N[*:1])c1cccc2ccccc12)[*:2]].F.D.D.F.[O=C(C[C@H](N[*:1])c1cccc2ccccc12)[*:2]].R}$PEPTIDE1,PEPTIDE1,1:R1-10:R2$$$V2.0)
- IC50 (SKBR-3 cells [2]; [7]): 41.1 ± 3.2 µM

Molecule: H2N-K(3-amino-biphenyl propionic acid)F-OH [CP, reference compound]
- Inhibition of HER2:HER3 dimerization (PathHunter) [3]: did not inhibit HER2:HER3 dimerization
- SPR binding to HER2 ECD [6]: no SPR response was observed
- IC50 (MCF-7 cells): > 100000 nM
- IC50 (SKOV-3 cells): > 100000 nM
- IC50 (Calu-3 cells): > 100000 nM
- IC50 (SKBR-3 cells [2]; read-out: IC50 SKBR-3(+), HER2-overexpressing breast cancer cells, 72 h): > 100 µM
- IC50 (BT-474 cells): > 100000 nM

Molecule: Cyclo(1,10)GPR- (Anapa)FDEFWR [compound 20]
- IC50 (SKBR-3 cells [1]): > 100 µM

Molecule: N=C(N)NCCC[C@@H]1NC(=O)[C@@H]2CCCN2C(=O)[C@H]2CCCN2C(=O)[C@H](CCCNC(=N)N)NC(=O)C[C@@H](c2cccc3ccccc23)NC(=O)[C@H](Cc2ccccc2)NC(=O)[C@H](CC(=O)O)NC(=O)[C@H](CC(=O)O)NC(=O)[C@H](Cc2ccccc2)NC(=O)C[C@@H](c2cccc3ccccc23)NC1=O [compound 18-4, Cyclo(1,10)p^1P^2R^3(S-Anapa)^4F^5D^6D^7F^8(S-Anapa)^9R^10] (HELM PEPTIDE1{[dP].P.R.[O=C(C[C@H](N[*:1])c1cccc2ccccc12)[*:2]].F.D.D.F.[O=C(C[C@H](N[*:1])c1cccc2ccccc12)[*:2]].R}$PEPTIDE1,PEPTIDE1,1:R1-10:R2$$$V2.0)
- IC50 (SKBR-3 cells [2]; [7]): 0.456 ± 0.13 µM

Source: PMC5650337, “A peptidomimetic with a chiral switch is an inhibitor of epidermal growth factor receptor heterodimerization” (Oncotarget, 2017)
